Residues, ends and D or L forms follow the SMILES beside them.
Target: T1, mutant human B2R(Ø) lacking AltB2R expression (Homo sapiens, UniProt P30411)
T1 construct: expressed in transfected cells; host or cells: HEK293A
T1 sequence (P30411 1-391): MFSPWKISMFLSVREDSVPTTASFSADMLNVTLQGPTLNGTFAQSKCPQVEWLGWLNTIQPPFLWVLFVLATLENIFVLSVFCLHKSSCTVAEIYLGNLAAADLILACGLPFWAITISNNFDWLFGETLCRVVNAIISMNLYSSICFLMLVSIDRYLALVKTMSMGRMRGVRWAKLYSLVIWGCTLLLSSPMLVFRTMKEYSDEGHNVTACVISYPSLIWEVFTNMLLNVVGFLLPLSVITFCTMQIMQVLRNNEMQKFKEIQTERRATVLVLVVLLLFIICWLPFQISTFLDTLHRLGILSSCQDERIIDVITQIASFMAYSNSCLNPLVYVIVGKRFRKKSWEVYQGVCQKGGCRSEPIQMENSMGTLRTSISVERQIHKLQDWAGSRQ
Experiment: Inositol phosphate (IP1) production, IP-One Gq assay (FRET), B2R(Ø)-transfected HEK293A cells (lacking AltB2R)
Format: cell-based
Conditions: HEK293-A; Emax in B2R(Ø) versus B2R cells; read-out: reduction of efficacy (Emax) for IP1 formation in cells without AltB2R expression
Description: This construct is a monocistronic version of B2R with the mutation C168T. In this mutant, a premature stop codon is introduced in the AltB2R coding sequence (Q11stop) in a manner synonymous for B2R (L56 L). Thus, the B2R encodes B2R and AltB2R, whereas mutant B2R^(Ø) encodes only B2R.
To consolidate the western blot data, AlphaLISA assays were also conducted in parallel in the same cell lines for the quantitative analyses of B2R-stimulated ERK1/2 phosphorylation (Fig. 5, B and C).
Quantitative densitometry analysis of pERK1/2 levels over time (top right). pERK/total ERK ratios were calculated for each time point.
HeLa, HEK293T, and HEK293A cells were maintained in Dulbecco's modified Eagle's medium (DMEM) containing 10% fetal bovine serum (FBS) (Wisent, #080-450) and 1% antibiotic-antimycotic (Wisent, #450-115-EL) under standard conditions. HEK293A cells were transiently transfected with the pcDNA3.1-vector containing the cDNA of human B2R or B2R^(Ø), using polyethylenimine (PEI) or JetPrime (Polyplus). HeLa cells were transiently transfected with B2R and AltB2R constructs using GeneCellin (Bulldog Bio Inc) or JetPrime (Polyplus) transfection reagent, as per the manufacturer’s instructions, and incubated 24 h at 37 °C, unless otherwise stated.
Inositol monophosphate (IP1) production was determined using the IP-One Gq assay kits (Cisbio, #62IPAPEB), according to the manufacturer's instructions. Fluorescence resonance energy transfer (FRET) signals were measured with a Tecan M1000 plate reader.

COc1ccc(C[C@@H](CN[C@@H](CCCNC(=N)N)C(=O)O)NC(=O)[C@@H]2CCCN2C(=O)[C@H](CO)NC(=O)[C@H](Cc2cccs2)NC(=O)CNC(=O)[C@@H]2C[C@@H](O)CN2C(=O)[C@@H]2CCCN2C(=O)[C@@H](N)CCCNC(=N)N)cc1 [RMP-7, [Hyp^3,Thi^5,(4-Me)Tyr^8(ΨCH2NH)Arg^9]-BK] (HELM PEPTIDE1{R.P.[Hyp].G.[O=C([C@H](Cc1cccs1)N[*:1])[*:2]].S.P.[COc1ccc(C[C@@H](CN[C@@H](CCCNC(=N)N)C(=O)O)N[*:1])cc1]}$$$$V2.0)
Emax: 16%
